Read-outs that look alike come from different tables or passages of the source.
Assays:
SpnFADS [1] = biological target: T1, SpnFADS (Streptococcus pneumoniae, UniProt A0A0H2UPY5); test: RFK activity, HPLC of flavins, global Lineweaver-Burk fit; format: biochemical
T1 construct: gene SP_1110; full-length bifunctional enzyme from pET-15b in E. coli BL21 Star (DE3), His6-tag removed; riboflavin kinase activity of the C-terminal module; functional form monomer
T1 sequence (A0A0H2UPY5 1-305): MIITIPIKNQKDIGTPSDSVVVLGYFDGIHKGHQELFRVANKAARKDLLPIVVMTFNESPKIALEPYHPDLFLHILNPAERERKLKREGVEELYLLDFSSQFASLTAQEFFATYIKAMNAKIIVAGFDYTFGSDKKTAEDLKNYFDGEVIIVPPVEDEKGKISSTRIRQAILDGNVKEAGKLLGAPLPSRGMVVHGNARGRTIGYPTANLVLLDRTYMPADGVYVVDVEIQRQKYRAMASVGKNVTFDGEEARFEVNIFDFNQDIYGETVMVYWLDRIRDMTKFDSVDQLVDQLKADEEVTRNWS
Source text: (§1) RFK activity, HPLC of flavins, global Lineweaver-Burk fit on SpnFADS

SpnFADS [2] = biological target: T1, SpnFADS; test: stopped-flow flavin fluorescence, Kd from koff and kon; format: binding
Source text: stopped-flow flavin fluorescence, Kd from koff and kon on SpnFADS

SpnFADS [3] = biological target: T1, SpnFADS; test: biochemical; parameters: Isothermal titration calorimetry, ligand titrated into free or ligand-pre-bound SpnFADS, 20 °C, PIPES pH 7.0
Protocol: We performed isothermal titration calorimetry (ITC) assays to elucidate both the ligand binding order and the thermodynamic inhibition produced by the binding of the FLV and ANP ligands. Titrations were performed on an AutoITC200 (MicroCal, Malvern, UK) thermostated at 20 °C, as previously described. Approximately 25 µM SpnFADS contained in a 200 µL-cell was titrated with solutions of 180 µM RF, 250 µM FMN, or 350 µM ATP or ADP. Additionally, titrations with ANP ligands into mixtures that contain the protein pre-bound to FLV ligands were performed, as well as titrations with FLV ligands into pre-bound SpnFADS:ANP complexes. The titrations were conducted through 19 stepwise injections of 2 µL of the titrating ligand to the calorimetric cell, as previously described[21]^,[26]. Both the ligands and the protein were dissolved in 20 mM PIPES, pH 7.0, either in presence of 0.8 mM MgCl2 or in absence of this cation, and degassed before the titration. The enthalpy change (ΔH), the association constant (Ka), and the binding stoichiometry (N) were obtained through non-linear least squares regression of the data using a homemade fitting routine corresponding to a model for one or two independent binding sites, implemented in Origin 7.0 (OriginLab, Northampton, MA, USA), as previously described[21]^,[26]. The Gibbs free energy (ΔG), the entropic contribution (−TΔS), and the dissociation constant (Kd) were obtained using well-known thermodynamic equations. Cooperativity constants (α) between ANP and FLV ligands were obtained as previously described[23]^,[27]^,[28]. Particular titrations with ANP ligands into mixtures of the protein and 100 µM FLV were fit to a homemade fitting routine corresponding to a model that considers the influence of the FLV ligand in the protein binding affinity for the ANP ligand[27]^,[28]. Experiments were performed in triplicate. The errors considered in the measured parameters (±15% in Kd and Ka values, ±0.3 kcal mol^−1 in ΔG, ΔH, and −TΔS and ±20% in α) were assumed to be larger than the standard deviation between replicates and the numerical error after fitting analysis.

[4] = substrate: Nc1ncnc2c1ncn2[C@@H]1O[C@H](COP(=O)(O)OP(=O)(O)OP(=O)(O)O)[C@@H](O)[C@H]1O; test: RFK activity, HPLC of flavins, global Lineweaver-Burk fit; format: biochemical, Streptococcus pneumoniae; details: co-substrate RF, 20 mM PIPES pH 7.0, 0.8 mM MgCl2, 25 °C
Source text: as §1

[5] = substrate: Cc1cc2nc3c(=O)[nH]c(=O)nc-3n(C[C@H](O)[C@H](O)[C@H](O)CO)c2cc1C; test: as above; format: biochemical, Streptococcus pneumoniae; details: co-substrate ATP, 20 mM PIPES pH 7.0, 0.8 mM MgCl2, 25 °C
Source text: as §1

[6] = enzyme pre-bound to ADP, 0.8 mM MgCl2
[7] = enzyme pre-bound to ADP, no MgCl2, read-out: Kd (μM), 0.0 mM MgCl2

Nc1ncnc2c1ncn2[C@@H]1O[C@H](COP(=O)(O)OP(=O)(O)O)[C@@H](O)[C@H]1O [ADP, adenosine 5′-diphosphate]
Ki (SpnFADS [1]; read-out: Ki^ADP): 130 ± 16 µM

Cc1cc2nc3c(=O)[nH]c(=O)nc-3n(C[C@H](O)[C@H](O)[C@H](O)COP(=O)(O)O)c2cc1C [FMN, flavin mononucleotide]
Kd (SpnFADS [2]): 0.76 ± 0.24 µM
Kd (SpnFADS [3]; [6]): 2.3 µM
Kd (SpnFADS [3]; [7]): 7.9 µM
Kd (SpnFADS [3]; enzyme pre-bound to ATP, 0.8 mM MgCl2): 1.6 µM
Ki (SpnFADS [1]; read-out: Ki^FMN): 1.3 ± 0.4 µM

Cc1cc2nc3c(=O)[nH]c(=O)nc-3n(C[C@H](O)[C@H](O)[C@H](O)CO)c2cc1C [RF, riboflavin]
Kd (SpnFADS [2]): 0.57 ± 0.14 µM
Kd (SpnFADS [3]; [6]): 1.6 µM
Kd (SpnFADS [3]; [7]): 0.3 µM
Kd (SpnFADS [3]; enzyme pre-bound to ATP, no MgCl2, read-out: Kd (μM), 0.0 mM MgCl2): 2.5 µM

B1: SpnFADS (Streptococcus pneumoniae TIGR4) (protein)
chain: T1 sequence (A0A0H2UPY5 1-305)
notes: full-length bifunctional enzyme from pET-15b in E. coli BL21 Star (DE3), His6-tag removed; riboflavin kinase activity of the C-terminal module; functional form monomer
Km [4]: 75 ± 7 µM
kcat [4]: 0.917 ± 0.033 s⁻¹
Km [5]: 1.2 ± 0.3 µM
kcat [5]: 0.917 ± 0.033 s⁻¹

Source: paper PMC6010069, “The RFK catalytic cycle of the pathogen Streptococcus pneumoniae shows species-specific features in prokaryotic FMN synthesis” (Journal of Enzyme Inhibition and Medicinal Chemistry, 2018)
